Test results: patent publication US7411083B2, “Substituted acetic acid derivatives” (Wyeth, priority 2003, dated 2008)

molecular target: T1, recombinant human plasminogen activator inhibitor-1 (PAI-1) (Homo sapiens, UniProt P05121); experiment: Screening for PAI-1 inhibition (residual tPA activity, Spectrozyme-tPA chromogenic substrate); type: biochemical; details: test compound at 100 Um; pH 6.6 buffer, 140 nM PAI-1, 70 nM tPA
T1 construct: purchased Molecular Innovations, Royal Oak, Mich
Description: Screening for PAI-1 inhibition. Test compounds are dissolved in DMSO at a final concentration of 10 Mm, then diluted 100× in physiologic buffer. The inhibitory assay is initiated by the addition of the test compound (1-100 μM final concentration, maximum DMSO concentration of 0.2%) in a Ph 6.6 buffer containing 140 Nm recombinant human plasminogen activator inhibitor-1 (PAI-1; Molecular Innovations, Royal Oak, Mich.). Following a 1 hour incubation at room temperature, 70 Nm of recombinant human tissue plasminogen activator (Tpa) is added, and the combination of the test compound, PAI-1 and Tpa is incubated for an additional 30 minutes. Following the second incubation, Spectrozyme-Tpa (American Diagnostica, Greenwich, Conn.), a chromogenic substrate for Tpa, is added and absorbance read at 405 nm at 0 and 60 minutes. Relative PAI-1 inhibition is equal to the residual Tpa activity in the presence of the test compounds and PAI-1. Control treatments include the complete inhibition of Tpa by PAI-1 at the molar ratio employed (2:1), and the absence of any effect of the test compound on Tpa alone.

T1 sequence (P05121 24-402): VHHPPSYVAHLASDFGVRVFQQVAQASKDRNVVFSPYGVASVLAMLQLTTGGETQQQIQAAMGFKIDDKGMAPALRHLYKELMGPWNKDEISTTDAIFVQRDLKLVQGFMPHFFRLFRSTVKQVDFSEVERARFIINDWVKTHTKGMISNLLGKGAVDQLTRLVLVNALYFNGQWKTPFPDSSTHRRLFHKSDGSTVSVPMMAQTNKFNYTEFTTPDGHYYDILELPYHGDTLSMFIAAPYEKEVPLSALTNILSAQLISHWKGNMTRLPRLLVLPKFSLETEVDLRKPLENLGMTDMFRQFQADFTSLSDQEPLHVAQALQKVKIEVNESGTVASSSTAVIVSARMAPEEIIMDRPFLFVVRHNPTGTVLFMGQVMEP

Structure (SMILES) | inhibition at 100 µM
O=C(O)CO/N=C/c1cccc(-c2cccc(OCc3cccc(Br)c3)c2)c1 [Compound 62, {[((1E)-{3′-[(3-bromobenzyl)oxy]-1,1′-biphenyl-3-yl}methylidene)amino]oxy}acetic acid] | 84%
O=C(O)CO/N=C/c1ccc(OCc2ccc(C(F)(F)F)cc2)cc1OCc1ccc(C(F)(F)F)cc1 [Compound 124, ({[(1E)-(2,4-bis{[4-(trifluoromethyl)benzyl]oxy}phenyl)methylidene]amino}oxy)acetic acid] | 95%
CC(C)(C)c1ccc(OCC#Cc2ccc(/C=N/OCC(=O)O)cc2)cc1 [Compound 162, {[((1E)-{4-[3-(4-tert-butylphenoxy)prop-1-ynyl]phenyl}methylidene)amino]oxy}acetic acid] | 51%
O=C(O)CO/N=C/c1cc(OCc2cccc(C(F)(F)F)c2)ccc1OCc1cccc(C(F)(F)F)c1 [Compound 152, ({[(1E)-(2,5-bis{[3-(trifluoromethyl)benzyl]oxy}phenyl)methylidene]amino}oxy)acetic acid] | 100%
O=C(O)CO/N=C/c1cccc(OCc2ccc(Br)cc2)c1OCc1ccc(Br)cc1 [Compound 132, {[((1E)-{2,3-bis[(4-bromobenzyl)oxy]phenyl}methylidene)amino]oxy}acetic acid] | 65%
CC(C)Cc1ccc(OCC#Cc2cccc(/C=N/OCC(=O)O)c2)cc1 [Compound 173, {[((1E)-{3-[3-(4-isobutylphenoxy)prop-1-ynyl]phenyl}methylidene)amino]oxy}acetic acid] | 56%
O=C(O)CO/N=C/c1ccc(OCc2cccc(Br)c2)c(OCc2cccc(Br)c2)c1 [Compound 117, {[((1E)-{3,4-bis[(3-bromobenzyl)oxy]phenyl}methylidene)amino]oxy}acetic acid] | 88%
O=C(O)CO/N=C/c1cc(OCc2ccc(C(F)(F)F)cc2)ccc1OCc1ccc(C(F)(F)F)cc1 [Compound 154, ({[(1E)-(2,5-bis{[4-(trifluoromethyl)benzyl]oxy}phenyl)methylidene]amino}oxy)acetic acid] | 91%
Cc1ccc(COc2cccc(-c3ccc(/C=N/OCC(=O)O)cc3)c2)cc1 [Compound 99, {[((1E)-{3′-[(4-methylbenzyl)oxy]-1,1′-biphenyl-4-yl}methylidene)amino]oxy}acetic acid] | 84%
O=C(O)CO/N=C/c1ccc(-c2cccc(OCc3ccc(C(F)(F)F)cc3)c2)cc1 [Compound 88, ({[(1E)-(3′-{[4-(trifluoromethyl)benzyl]oxy}-1,1′-biphenyl-4-yl)methylidene]amino}oxy)acetic acid] | 34%
O=C(O)CO/N=C/c1cccc(OCc2ccc(F)cc2)c1OCc1ccc(F)cc1 [Compound 133, {[((1E)-{2,3-bis[(4-fluorobenzyl)oxy]phenyl}methylidene)amino]oxy}acetic acid] | 20%
O=C(O)CO/N=C/c1ccc(C#CCOc2ccc(Br)cc2)cc1 [Compound 163, {[((1E)-{4-[3-(4-bromophenoxy)prop-1-ynyl]phenyl}methylidene)amino]oxy}acetic acid] | 65%
O=C(O)CO/N=C/c1cccc(-c2cccc(OCc3c(Cl)cccc3Cl)c2)c1 [Compound 72, {[((1E)-{3′-[(2,6-dichlorobenzyl)oxy]-1,1′-biphenyl-3-yl}methylidene)amino]oxy}acetic acid] | 88%
CC(C)(C)c1ccc(COc2ccc(/C=N/OCC(=O)O)cc2OCc2ccc(C(C)(C)C)cc2)cc1 [Compound 112, {[((1E)-{3,4-bis[(4-tert-butylbenzyl)oxy]phenyl}methylidene)amino]oxy}acetic acid] | 65%
CC(C)Cc1ccc(OCC#Cc2ccc(/C=N/OCC(=O)O)cc2)cc1 [Compound 167, {[((1E)-{4-[3-(4-isobutylphenoxy)prop-1-ynyl]phenyl}methylidene)amino]oxy}acetic acid] | 53%
O=C(O)CO/N=C/c1cccc(-c2ccc(OCc3ccc(Cl)cc3)cc2)c1 [Compound 81, {[((1E)-{4′-[(4-chlorobenzyl)oxy]-1,1′-biphenyl-3-yl}methylidene)amino]oxy}acetic acid] | 28%
O=C(O)CO/N=C/c1cccc(-c2cccc(OCc3ccccc3Cl)c2)c1 [Compound 67, {[((1E)-{3′-[(2-chlorobenzyl)oxy]-1,1′-biphenyl-3-yl}methylidene)amino]oxy}acetic acid] | 87%
O=C(O)CO/N=C/c1ccc(OCc2ccc(Br)cc2)c(OCc2ccc(Br)cc2)c1 [Compound 115, {[((1E)-{3,4-bis[(4-bromobenzyl)oxy]phenyl}methylidene)amino]oxy}acetic acid] | 87%
O=C(O)CO/N=C/c1cccc(-c2cccc(OCc3ccc(Cl)cc3)c2)c1 [Compound 66, {[((1E)-{3′-[(4-chlorobenzyl)oxy]-1,1′-biphenyl-3-yl}methylidene)amino]oxy}acetic acid] | 84%
CC(C)(C)c1ccc(COc2ccc(/C=N/OCC(=O)O)c(OCc3ccc(C(C)(C)C)cc3)c2)cc1 [Compound 126, {[((1E)-{2,4-bis[(4-tert-butylbenzyl)oxy]phenyl}methylidene)amino]oxy}acetic acid] | 77%
O=C(O)CO/N=C/c1cc(OCc2cccc(Cl)c2)cc(OCc2cccc(Cl)c2)c1 [Compound 142, {[((1E)-{3,5-bis[(3-chlorobenzyl)oxy]phenyl}methylidene)amino]oxy}acetic acid] | 86%
O=C(O)CO/N=C/c1ccc(-c2ccc(OCc3c(Cl)cccc3Cl)cc2)cc1 [Compound 111, {[((1E)-{4′-[(2,6-dichlorobenzyl)oxy]-1,1′-biphenyl-4-yl}methylidene)amino]oxy}acetic acid] | 38%

Further lines, results first:

inhibition at 100 µM | Structure (SMILES)
50% | C=CCn1cc(/C=N/OCC(=O)O)c2cc(OCc3ccccc3)ccc21 [Compound 40, [({(1E)-[1-allyl-5-(benzyloxy)-1H-indol-3-yl]methylidene}amino)oxy]acetic acid]
68% | C=CCn1cc(/C=N/OCC(=O)O)c2cc(OCc3cccc(C)c3)ccc21 [Compound 25, {[((1E)-{1-allyl-5-[(3-methylbenzyl)oxy]-1H-indol-3-yl}methylidene)amino]oxy}acetic acid]
63% | CCn1cc(/C=N/OCC(=O)O)c2cc(OCc3ccc(Br)cc3)ccc21 [Compound 8, {[((1E)-{5-[(4-bromobenzyl)oxy]-1-ethyl-1H-indol-3-yl}methylidene)amino]oxy}acetic acid]
99% | Cc1cccc(COc2ccc3c(c2)c(/C=N/OCC(=O)O)cn3Cc2ccccc2)c1 [Compound 27, {[((1E)-{1-benzyl-5-[(3-methylbenzyl)oxy]-1H-indol-3-yl}methylidene)amino]oxy}acetic acid]
44% | CCn1cc(/C=N/OCC(=O)O)c2cc(OCc3ccc(C)cc3)ccc21 [Compound 20, {[((1E)-{1-ethyl-5-[(4-methylbenzyl)oxy]-1H-indol-3-yl}methylidene)amino]oxy}acetic acid]
95% | C=CCn1cc(/C=N/OCC(=O)O)c2cc(OCc3cccc(Br)c3)ccc21 [Compound 13, {[((1E)-{1-allyl-5-[(3-bromobenzyl)oxy]-1H-indol-3-yl}methylidene)amino]oxy}acetic acid]
79% | O=C(O)CO/N=C/c1cn(Cc2ccccc2)c2ccc(OCc3cccc(C(F)(F)F)c3)cc12 [Compound 24, ({[(1E)-(1-benzyl-5-{[3-(trifluoromethyl)benzyl]oxy}-1H-indol-3-yl)methylidene]amino}oxy)acetic acid]
31% | Cn1cc(/C=N/OCC(=O)O)c2cc(OCc3ccc(Cl)cc3)ccc21 [Compound 47, {[((1E)-{5-[(4-chlorobenzyl)oxy]-1-methyl-1H-indol-3-yl}methylidene)amino]oxy}acetic acid]
73% | C=CCn1cc(/C=N/OCC(=O)O)c2cc(OCc3ccc(C)cc3)ccc21 [Compound 19, {[((1E)-{1-allyl-5-[(4-methylbenzyl)oxy]-1H-indol-3-yl}methylidene)amino]oxy}acetic acid]
22% | Cc1cccc(COc2ccc(-c3cccc(/C=N/OCC(=O)O)c3)cc2)c1 [Compound 86, {[((1E)-{4′-[(3-methylbenzyl)oxy]-1,1′-biphenyl-3-yl}methylidene)amino]oxy}acetic acid]
48% | Cn1cc(/C=N/OCC(=O)O)c2cc(OCc3cccc(Cl)c3)ccc21 [Compound 39, {[((1E)-{5-[(3-chlorobenzyl)oxy]-1-methyl-1H-indol-3-yl}methylidene)amino]oxy}acetic acid]
44% | C#CCn1cc(/C=N/OCC(=O)O)c2cc(OCc3cc(C(F)(F)F)cc(C(F)(F)F)c3)ccc21 [Compound 35, [({(1E)-[5-{[3,5-bis(trifluoromethyl)benzyl]oxy}-1-(2-propynyl)-1H-indol-3-yl]methylidene}amino)oxy]acetic acid]
5% | O=C(O)CO/N=C/c1ccc(-c2ccc(OCc3ccccc3)cc2)cc1 [Compound 105, [({(1E)-[4′-(benzyloxy)-1,1′-biphenyl-4-yl]methylidene}amino)oxy]acetic acid]
70% | Cn1cc(/C=N/OCC(=O)O)c2cc(OCc3cccc(Br)c3)ccc21 [Compound 37, {[((1E)-{5-[(3-bromobenzyl)oxy]-1-methyl-1H-indol-3-yl}methylidene)amino]oxy}acetic acid]
